Experimental data from patent US11780832B2, “Lactivicin compounds, their preparation and use as antibacterial agents” (priority 2021, dated 2023).

Columns and labels:
Assay type in all cases: cell-based
[1] = tested on: Acinetobacter baumannii ATCC 19606; experiment: MIC, CLSI broth microdilution; conditions: ATCC19606
In short: (§1)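 Broth microdilution following CLSI guidance was used to obtain MICs. Bacteria, recovered through two passages from skim-milk stocks held at −80 °C, were exposed to doubling dilutions of compound (final 16-0.0125 μg/mL).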

[2] = tested on: Enterobacter cloacae species complex NDM-1; experiment: MIC, CLSI broth microdilution
In short: as §1

[3] = tested on: Escherichia coli CTX-M-15; experiment: MIC, CLSI broth microdilution; conditions: CTXM15
In short: as §1

[4] = tested on: Klebsiella aerogenes VIM-1, SHV-12; experiment: MIC, CLSI broth microdilution
In short: as §1

[5] = tested on: Klebsiella oxytoca KPC-2, TEM-1; experiment: MIC, CLSI broth microdilution; conditions: KPC-2, TEM-1, read-out: MIC
In short: as §1

[6] = tested on: Klebsiella pneumoniae KPC-2; experiment: MIC, CLSI broth microdilution; conditions: KPC2
In short: as §1

[7] = tested on: Klebsiella pneumoniae KPC-3; experiment: MIC, CLSI broth microdilution; conditions: KPC3, KPC-3, read-out: MIC
In short: as §1

[8] = tested on: Klebsiella pneumoniae OXA-163, OXA-1_OXA-30, SHV-1, TEM-1; experiment: MIC, CLSI broth microdilution
In short: (§2)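 MIC values come from CLSI broth microdilution against clinical and ATCC isolates whose resistance genes had been characterized. Compound dilutions were two-fold, with final concentrations between 16 and 0.0125 μg/mL.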

[9] = tested on: Klebsiella pneumoniae OXA-48, SHV-1; experiment: MIC, CLSI broth microdilution
In short: as §2

[10] = tested on: Pseudomonas aeruginosa OprD negative; experiment: MIC, CLSI broth microdilution
In short: as §2

[11] = tested on: Citrobacter freundii species complex Elevated AmpC; experiment: MIC against Elevated AmpC producing strains, compound alone; conditions: row r16
Procedure: (§3) Gram-negative and Gram-positive bacterial strains used during the in vitro minimum inhibitory concentration (MIC) determination were obtained either from the American Type Culture Collection (ATCC) or from clinical specimens. All strains were characterized genotypically and the respective antibiotic resistance markers for each strain were identified.
(§4) Isolates were sub-cultured onto appropriate media and stocked in skim milk at −80° C. Following two subcultures from frozen stock, in vitro antimicrobial susceptibility testing was performed using the Clinical and Laboratory Standards Institute (CLSI) broth microdilution method. Briefly, fresh cultures were suspended in culture media to give a final stock inoculum size of 5×10^7 colony forming units per milliliter of broth (CFU/mL). Test compounds were prepared at a stock solution concentration equal to 128 μg/mL, then diluted to give a final an initial working concentration of 32 μg/mL. 100 μL of the stock solutions were added to the first wells in a 96-well plate and were then diluted using a 2-fold dilution method to give a range of 32-0.025 μg/mL. 100 μL of the bacterial suspensions were then added to the 96-well plates to give a final working inoculum size of 5×10^5 CFU/mL. The final compound concentration range was 16-0.0125 μg/mL. […] MICs for comparator agents were determined using custom-designed, in-house prepared 96-well broth microdilution panels.

[12] = tested on: Enterobacter cloacae species complex Elevated AmpC; experiment: as above
Procedure: as §3, §4

[13] = tested on: Escherichia coli Elevated AmpC; experiment: as above
Procedure: as §3, §4

Escherichia coli CMY-DHA [14] = experiment: MIC against CMY-DHA producing strains, compound alone
Procedure: as §3, §4

[15] = tested on: Klebsiella pneumoniae CMY-DHA; experiment: as above; conditions: row r32
Procedure: as §3, §4

[16] = tested on: Proteus mirabilis CMY-DHA; experiment: as above; conditions: row r36
Procedure: as §3, §4

[17] = tested on: Citrobacter freundii species complex Elevated AmpC; experiment: Synergistic activity: MIC in the presence of Avibactam; conditions: row r16, in the presence of Avibactam @ 4 μg/mL
Procedure: as §4
(§5) The same method used to test the activity of the claimed compounds was used to determine their synergistic activity when combined with a β-lactamase inhibitor except that either a fixed concentration or fixed ratio of a β-lactamase inhibitor was added to the 96-well plates prior to adding the bacteria cultures. Synergistic activity was defined as the reduction of MIC of a given compound when tested using the β-lactamase inhibitor versus testing the compound in the absence of a β-lactamase inhibitor.

[18] = tested on: Enterobacter cloacae species complex Elevated AmpC; experiment: as above
Procedure: as §4, §5

Escherichia coli CMY-DHA [19] = experiment: as above
Procedure: as §4, §5

[20] = tested on: Escherichia coli Elevated AmpC; experiment: as above
Procedure: as §4, §5

[21] = tested on: Klebsiella pneumoniae CMY-DHA; experiment: as above; conditions: row r32, in the presence of Avibactam @ 4 μg/mL
Procedure: as §4, §5

[22] = tested on: Proteus mirabilis CMY-DHA; experiment: as above; conditions: row r36, in the presence of Avibactam @ 4 μg/mL
Procedure: as §4, §5

[23] = in the presence of Avibactam @ 4 μg/mL
[24] = strain of row r7, in the presence of Avibactam @ 4 μg/mL
[25] = strain of row r20, in the presence of Avibactam @ 4 μg/mL
[26] = strain of row r26, in the presence of Avibactam @ 4 μg/mL
[27] = strain of row r27, in the presence of Avibactam @ 4 μg/mL
[28] = strain of row r28, in the presence of Avibactam @ 4 μg/mL
[29] = strain of row r29, in the presence of Avibactam @ 4 μg/mL
[30] = strain of row r30, in the presence of Avibactam @ 4 μg/mL
[31] = strain of row r31, in the presence of Avibactam @ 4 μg/mL
[32] = strain of row r34, in the presence of Avibactam @ 4 μg/mL
[33] = strain of row r35, in the presence of Avibactam @ 4 μg/mL
[34] = strain of row r10, in the presence of Avibactam @ 4 μg/mL
[35] = strain of row r11, in the presence of Avibactam @ 4 μg/mL
[36] = strain of row r12, in the presence of Avibactam @ 4 μg/mL
[37] = strain of row r13, in the presence of Avibactam @ 4 μg/mL
[38] = strain of row r14, in the presence of Avibactam @ 4 μg/mL
[39] = strain of row r15, in the presence of Avibactam @ 4 μg/mL

Measured: MIC

Nc1nc(/C(=N/OC2(C(=O)O)CC2)C(=O)N[C@H]2CON(C3(C(=O)O)C[C@H](N4C(=O)c5cc(O)c(O)cc5C4=O)C(=O)O3)C2=O)ns1 (stereo partly drawn) [Cmpd 18, (4S)-2-[(4S)-4-{[(2Z)-2-(5-amino-1,2,4-thiadiazol-3-yl)-2-{[(1-carboxycyclopropyl)oxy]imino}acetyl]amino}-3-oxo-1,2-oxazolidin-2-yl]-4-(5,6-dihydroxy-1,3-dioxo-1,3-dihydro-2H-isoindol-2-yl)-5-oxooxolane-2-carboxylic acid]
1 µg/mL: [3] | [11] | [12] | Escherichia coli CMY-DHA [14]; strain of row r29 | [15] | [16]
0.06 µg/mL: [6] | [7] | [13]; strain of row r13 | [13]; strain of row r14 | [18]; [23] | Escherichia coli CMY-DHA [19]; [29] | Escherichia coli CMY-DHA [19]; [31] | [20]; [36] | [20]; [39] | [22]
<=0.008 μg/mL: [18]; [25] | Escherichia coli CMY-DHA [19]; [27] | Escherichia coli CMY-DHA [19]; [30] | [20]; [34] | [20]; [35] | [20]; [37] | [20]; [38]
0.12 µg/mL: [8] | [10] | Escherichia coli CMY-DHA [14]; strain of row r27 | [18]; [24]
0.5 µg/mL: [2] | [4] | [13]; strain of row r12 | Escherichia coli CMY-DHA [14]; strain of row r26 | Escherichia coli CMY-DHA [14]; strain of row r30 | Escherichia coli CMY-DHA [14]; strain of row r34 | Escherichia coli CMY-DHA [14]; strain of row r35
0.0149 µg/mL: [5] | [9]
2 µg/mL: Escherichia coli CMY-DHA [14]; strain of row r31
0.015 µg/mL: Escherichia coli CMY-DHA [19]; [32] | Escherichia coli CMY-DHA [19]; [33]
4 µg/mL: [12]; strain of row r7
0.25 µg/mL: [1] | [12]; strain of row r20 | [13]; strain of row r11 | [13]; strain of row r15 | Escherichia coli CMY-DHA [14]; strain of row r28 | [21]
0.03 µg/mL: [13]; strain of row r10 | [17] | Escherichia coli CMY-DHA [19]; [26] | Escherichia coli CMY-DHA [19]; [28]

Nc1nc(/C(=N/OC2(C(=O)O)CCOCC2)C(=O)N[C@H]2CON(C3(C(=O)O)C[C@H](N4C(=O)c5cc(O)c(O)nc5C4=O)C(=O)O3)C2=O)cs1 (stereo partly drawn) [Cmpd 26, 4-({(Z)-[1-(2-amino-1,3-thiazol-4-yl)-2-({(4S)-2-[(4S)-2-carboxy-4-(2,3-dihydroxy-5,7-dioxo-5,7-dihydro-6H-pyrrolo[3,4-b]pyridin-6-yl)-5-oxooxolan-2-yl]-3-oxo-1,2-oxazolidin-4-yl}amino)-2-oxoethylidene]amino}oxy)oxane-4-carboxylic acid]
<=0.008 μg/mL: [18]; [25] | Escherichia coli CMY-DHA [19]; [30] | [20]; [37]
0.5 µg/mL: [13]; strain of row r11 | [13]; strain of row r15 | [18]; [24] | Escherichia coli CMY-DHA [19]; [29] | Escherichia coli CMY-DHA [19]; [31] | [21]
4 µg/mL: [3] | [12]; strain of row r7 | [15] | [16]
0.015 µg/mL: [20]; [34] | [20]; [38]
0.12 µg/mL: [7] | [8] | [13]; strain of row r14 | [20]; [35] | [20]; [39]
0.03 µg/mL: Escherichia coli CMY-DHA [19]; [27]
0.25 µg/mL: [4] | Escherichia coli CMY-DHA [14]; strain of row r27 | [17] | [18]; [23] | Escherichia coli CMY-DHA [19]; [26] | [20]; [36]
0.06 µg/mL: [13]; strain of row r10 | [13]; strain of row r13 | Escherichia coli CMY-DHA [19]; [28] | Escherichia coli CMY-DHA [19]; [32] | Escherichia coli CMY-DHA [19]; [33] | [22]
0.0149 µg/mL: [5] | [6] | [9]
2 µg/mL: [2] | [10] | [12] | [13]; strain of row r12 | Escherichia coli CMY-DHA [14]; strain of row r26 | Escherichia coli CMY-DHA [14]; strain of row r29
8 µg/mL: Escherichia coli CMY-DHA [14]; strain of row r31
1 µg/mL: [1] | [11] | [12]; strain of row r20 | Escherichia coli CMY-DHA [14]; strain of row r28 | Escherichia coli CMY-DHA [14]; strain of row r30 | Escherichia coli CMY-DHA [14]; strain of row r34 | Escherichia coli CMY-DHA [14]; strain of row r35
